In patent US20130338367A1, “PYRAZOLE DERIVATIVES AND PESTICIDES” (Nissan Chemical Industries, Ltd., priority 2011, published 2013):
Structures can show the parent of a compound that is named as a salt.

Experiments:
Aphis gossypii = assay: Insecticidal Test on Aphis gossypii; format: in vivo; details: foliar, 144 h, 500 ppm solution sprayed, apterous adults on cucumber leaf discs, 25° C., 6 days after, read-out: mortality
Method: (§1) Wet absorbent cotton was laid on glass dishes having an inner diameter of 3 cm, and covered with leaves of cucumber cut into circles of the same diameter, and 4 apterous adults of Aphis gossypii were released. After a day, 10% emulsifiable concentrates (or 10% wettable powders) of compounds of the present invention were diluted with water containing a spreader to obtain 500 ppm solutions, and the solution were sprayed from a rotary spray tower (2.5 mg/cm^2). The dishes were covered with lids and placed in an incubator at 25° C. 6 Days after, dead insects were counted, and the mortality was calculated by using the same equation as in Test Example 1. The test was carried out in duplicate.

Bemisia argentifolii = assay: Insecticidal Test on Bemisia argentifolii; format: in vivo; details: 120 h, 500 ppm solution sprayed on kidney bean leaves, adults, 25° C., 5 days after, read-out: mortality
Method: In styrol cups having an inner diameter of 7 cm, wet filter paper was laid, and kidney bean leaves cut to 3 cm were laid on the paper. 10% emulsifiable concentrates (or 10% wettable powders) of compounds of the present invention were diluted with water containing a spreader to obtain 500 ppm solutions. 2.5 ml of the solutions were sprayed from a rotary spray tower into the styrol cups (2.5 mg/cm^2). The leaves were dried in air, and adults of Bemisia argentifolii were released in the cups. The cups were closed and placed in an incubator at 25° C. 5 Days after, dead insects were counted, and the mortality was calculated by using the same equation as in Test Example 1. The test was carried out in duplicate.

Myzus persicae [1] = assay: Soil Irrigation Test on Myzus persicae; format: in vivo; details: 144 h, 100 ppm solution, 10 ml soil irrigation of cabbage seedlings, greenhouse, 6 days after release of insects
Method: 10% emulsifiable concentrates of compounds of the present invention were diluted with tap water to obtain 100 ppm solutions. The soil around the bases of cabbage seedlings (at the 2.5 true leaf stage) planted in plastic cups was irrigated with 10 ml of the solutions, and the cups were placed in a greenhouse. One day after the irrigation, adults of Myzus persicae were released at a ratio of 20 insects per seedling, and the seedlings were incubated in the greenhouse. 6 Days after the release of the insects, living insects were counted, and the control value was calculated from the following equation.
Control value (%)={1−(Cb×Tai)/(Cai×Tb)}×100
Cb: the number of insects in a non-treated area before treatment
Cai: the final number of living insects in a non-treated area
Tb: the number of insects in a treated area before treatment
Tai: the final number of living insects in a treated area

Myzus persicae [2] = assay: Insecticidal Test on Myzus persicae; format: in vivo; details: foliar, 144 h, 500 ppm solution sprayed, apterous adults on leaf discs, 25° C., 6 days after, read-out: mortality
Method: as §1, with “Canarium album” for “cucumber”, “Myzus persicae” for “Aphis gossypii”

Nilaparvata lugens = assay: Insecticidal Test on Nilaparvata lugens; format: in vivo; details: 144 h, 500 ppm solution, rice sheaths soaked, 2nd-instar nymphs, 25° C., 6 days after, read-out: mortality (%)
Method: 10% emulsifiable concentrates (or 10% wettable powders) of compounds of the present invention were diluted with water containing a spreader to obtain 500 ppm solutions. Rice sheaths were soaked in the solutions for about 10 seconds, dried in air and put in test tubes. In each tube, five 2nd-instar nymphs of Nilaparvata lugens were released, and the tubes were capped with sponge and placed in an incubator at 25° C. 6 Days after, dead insects were counted, and the mortality (%) (the number of dead insects÷the number of released insects×100) was calculated. The test was carried out in duplicate.

O=C1CCCCN1c1cnn(-c2cccnc2)c1 [1-034, 1-{1-(pyridin-3-yl)-1H-pyrazol-4-yl}piperidin-2-one]
melting point: 123 to 124 °C

CSCC(C)(C)C(=O)N(C)c1cn(-c2cccnc2)nc1Cl [1-134, N-{3-chloro-1-(pyridin-3-yl)-1H-pyrazol-4-yl}-N,2,2-trimethyl-3-(methylthio)propanamide]
mortality at 500 ppm (Aphis gossypii): ≥ 90%
mortality at 500 ppm (Bemisia argentifolii): ≥ 90%
pest or weed control at 100 ppm (Myzus persicae [1]): ≥ 90%
mortality at 500 ppm (Myzus persicae [2]): ≥ 90%
mortality at 500 ppm (Nilaparvata lugens): ≥ 90%

Cc1nn(-c2cccnc2)cc1NC(=O)OC(C)(C)C [1-011, tert-butyl 3-methyl-1-(pyridin-3-yl)-1H-pyrazol-4-ylcarbamate]
mortality at 500 ppm (Aphis gossypii): ≥ 90%
mortality at 500 ppm (Bemisia argentifolii): ≥ 90%
pest or weed control at 100 ppm (Myzus persicae [1]): ≥ 90%
mortality at 500 ppm (Myzus persicae [2]): ≥ 90%
mortality at 500 ppm (Nilaparvata lugens): ≥ 90%

CCN(C(=O)[C@H](C)CSC)c1cn(-c2cccnc2)nc1Cl [1-048(S)-(−), (S)-(−)-N-{3-chloro-1-(pyridin-3-yl)-1H-pyrazol-4-yl}-N-ethyl-2-methyl-3-(methylthio)propanamide]
mortality at 500 ppm (Aphis gossypii): ≥ 90%
mortality at 500 ppm (Bemisia argentifolii): ≥ 90%
pest or weed control at 100 ppm (Myzus persicae [1]): ≥ 90%
mortality at 500 ppm (Myzus persicae [2]): ≥ 90%
mortality at 500 ppm (Nilaparvata lugens): ≥ 90%

CCNc1cn(-c2cccnc2)nc1C (as salt: hydrochloride) [B-002, N-ethyl-3-methyl-1-(pyridin-3-yl)-1H-pyrazole-4-amine]
melting point: 113 to 116 °C

CCSC(C)C(=O)N(CC)c1cn(-c2cccnc2)nc1Cl (stereo not shown) [1-118, N-{3-chloro-1-(pyridin-3-yl)-1H-pyrazol-4-yl}-N-ethyl-2-(ethylthio)propanamide]
melting point: 65 to 66 °C
pest or weed control at 100 ppm (Myzus persicae [1]): ≥ 90%

CCN(C(=O)C(CSC)=NOC)c1cn(-c2cccnc2)nc1Cl [1-143, N-{3-chloro-1-(pyridin-3-yl)-1H-pyrazol-4-yl}-N-ethyl-2-(methoxyimino)-3-(methylthio)propanamide]
pest or weed control at 100 ppm (Myzus persicae [1]): ≥ 90%

CN(C(=O)CCS(C)(=O)=O)c1cn(-c2cccnc2)nc1Cl [1-052, N-{3-chloro-1-(pyridin-3-yl)-1H-pyrazol-4-yl}-N-methyl-3-(methylsulfonyl)propanamide]
melting point: 90 to 91 °C
pest or weed control at 100 ppm (Myzus persicae [1]): ≥ 90%

CSCC1CCN(c2cn(-c3cccnc3)nc2Cl)C1=O (stereo not shown) [1-141, 1-{3-chloro-1-(pyridin-3-yl)-1H-pyrazol-4-yl}-3-(methylthiomethyl)pyrrolidin-2-one]
melting point: 83 to 84 °C

Clc1nn(-c2cccnc2)cc1NCC1CC1 [B-014, 3-chloro-N-(cyclopropylmethyl)-1-(pyridin-3-yl)-1H-pyrazole-4-amine]
melting point: 72 to 78 °C

O=C(Nc1cnn(-c2cccnc2)c1)C(Br)CCCBr (stereo not shown) [1-025, 2,5-dibromo-N-{1-(pyridin-3-yl)-1H-pyrazol-4-yl}pentanamide]
melting point: 114 to 115 °C

CSCC(=O)N(C)C(C)=Nc1cn(-c2cccnc2)nc1C [3-004, N-methyl-N-[1-{3-methyl-1-(pyridin-3-yl)-1H-pyrazol-4-ylimino}ethyl]-2-(methylthio)acetamide]
mortality at 500 ppm (Bemisia argentifolii): ≥ 90%
pest or weed control at 100 ppm (Myzus persicae [1]): ≥ 90%
mortality at 500 ppm (Nilaparvata lugens): ≥ 90%

CCSC(C)C(=S)Nc1cn(-c2cccnc2)nc1Cl (stereo not shown) [1-353, N-{3-chloro-1-(pyridin-3-yl)-1H-pyrazol-4-yl}-2-(ethylthio)propanethioamide]
pest or weed control at 100 ppm (Myzus persicae [1]): ≥ 90%
mortality at 500 ppm (Nilaparvata lugens): ≥ 90%

CS(=O)(=O)Nc1cnn(-c2cccnc2)c1 [2-001]
melting point: 140 to 150 °C
